# In paper PMC11212140, “Molecular Bidents with Two Electrophilic Warheads as a New Pharmacological Modality” (ACS Central Science, 2024):
# Columns and labels:
# Assay in all cases: KiNativ profiling in H3255 cells
# Assay type in all cases: cell-based, human
# [1] = test system: T1, TBK1; settings: 2.5 µM; Lys1; TGDLFAIKVFNNISFLRPVDVQMR
# T1 construct: purchased ActivX Biosciences (KiNativ)
# Procedure: (§1) H3255 cells were plated with 6.5x10^6 per condition in fresh media in 15 cm plates and treated the 80% confluency for 2 hours with DMSO or 2.5 μM of ZNL-0056. To harvest cells, plates were washed 3 times with cold PBS, then collected by scraping into 4 mL of cold PBS containing protease and phosphatase inhibitors. Cells were pelleted by centrifugation at 1350 g at 4 ℃ for 5 minutes and immediately frozen in liquid nitrogen. The frozen samples were sent to ActivX Biosciences (La Jolla, CA) for the remainder of the KiNativ profiling experiment4. […]
# [2] = test system: PKD1, PKD2; settings: 2.5 µM; Lys2; NIVHCDLKPENVLLASADPFPQVK
# Procedure: as §1
# [3] = test system: T2, SIK; settings: 2.5 µM; Lys1; TQVAIKIIDK
# T2 construct: purchased ActivX Biosciences (KiNativ)
# Procedure: as §1
# [4] = test system: MAP3K15, MAP3K5, MAP3K6; settings: 2.5 µM; Lys1; IAIKEIPER
# Procedure: as §1
# [5] = test system: T3, SBK; settings: 2.5 µM; Lys2; DIKPENVLLFDR
# T3 construct: purchased ActivX Biosciences (KiNativ)
# Procedure: as §1
# [6] = test system: T4, NDR1; settings: 2.5 µM
# T4 construct: purchased ActivX Biosciences (KiNativ)
# Procedure: as §1
# [7] = test system: T5, MLKL; settings: 2.5 µM; Lys1; APVAIKVFK
# T5 construct: purchased ActivX Biosciences (KiNativ)
# Procedure: as §1
# [8] = test system: T6, PLK2; settings: 2.5 µM; Lys2; DLKLGNFFINEAMELK
# T6 construct: purchased ActivX Biosciences (KiNativ)
# Procedure: as §1
# [9] = test system: T7, CHK1; settings: 2.5 µM; Lys2; DIKPENLLLDER
# T7 construct: purchased ActivX Biosciences (KiNativ)
# Procedure: as §1
# [10] = test system: T8, PI4K2B; settings: 2.5 µM; ATP; SEEPYGQLNPKWTK
# T8 construct: purchased ActivX Biosciences (KiNativ)
# Procedure: as §1
# [11] = test system: T9, ACK; settings: 2.5 µM
# T9 construct: purchased ActivX Biosciences (KiNativ)
# Procedure: as §1
# [12] = test system: T10, SRPK2; settings: 2.5 µM; Lys2; IIHTDIKPENILMCVDDAYVR
# T10 construct: purchased ActivX Biosciences (KiNativ)
# Procedure: as §1
# [13] = test system: T11, GCN2 domain2; settings: 2.5 µM
# T11 construct: GCN2 domain2; purchased ActivX Biosciences (KiNativ)
# Procedure: as §1
# [14] = test system: T12, RIPK2; settings: 2.5 µM; Lys1; VQVAVKHLHIHTPLLDSER
# T12 construct: purchased ActivX Biosciences (KiNativ)
# Procedure: as §1
# [15] = test system: T13, EphB2; settings: 2.5 µM; Activation Loop; FLEDDTSDPTYTSALGGKIPIR
# T13 construct: purchased ActivX Biosciences (KiNativ)
# Procedure: as §1
# [16] = test system: T14, PKCi; settings: 2.5 µM
# T14 construct: purchased ActivX Biosciences (KiNativ)
# Procedure: as §1
# [17] = test system: T15, Erk1; settings: 2.5 µM; Lys2; DLKPSNLLINTTCDLK
# T15 construct: purchased ActivX Biosciences (KiNativ)
# Procedure: as §1
# [18] = test system: T16, Erk2; settings: 2.5 µM; Lys2; DLKPSNLLLNTTCDLK
# T16 construct: purchased ActivX Biosciences (KiNativ)
# Procedure: as §1
# [19] = test system: T17, RSK3 domain1; settings: 2.5 µM; Lys2; DLKPENILLDEEGHIKITDFGLSK
# T17 construct: RSK3 domain1; purchased ActivX Biosciences (KiNativ)
# Procedure: as §1
# [20] = test system: T18, PIP4K2A; settings: 2.5 µM, ATP
# T18 construct: purchased ActivX Biosciences (KiNativ)
# Procedure: as §1
# [21] = test system: T19, NEK1; settings: 2.5 µM; Lys2; DIKSQNIFLTK
# T19 construct: purchased ActivX Biosciences (KiNativ)
# Procedure: as §1
# [22] = test system: T20, FRAP; settings: 2.5 µM; ATP; IQSIAPSLQVITSKQRPR
# T20 construct: purchased ActivX Biosciences (KiNativ)
# Procedure: as §1
# [23] = test system: T21, HRI; settings: 2.5 µM; Activation Loop; IGDFGLACTDILQKNTDWTNR
# T21 construct: purchased ActivX Biosciences (KiNativ)
# Procedure: as §1
# [24] = test system: T22, CDK4; settings: 2.5 µM; Lys2; DLKPENILVTSGGTVK
# T22 construct: purchased ActivX Biosciences (KiNativ)
# Procedure: as §1
# [25] = test system: T23, ULK1; settings: 2.5 µM; Lys2; DLKPQNILLSNPAGR
# T23 construct: purchased ActivX Biosciences (KiNativ)
# Procedure: as §1
# [26] = test system: p38d, p38g; settings: 2.5 µM; Lys2; DLKPGNLAVNEDCELK
# Procedure: as §1
# [27] = test system: FYN, SRC, YES; settings: 2.5 µM; Activation Loop; QGAKFPIKWTAPEAALYGR
# Procedure: as §1
# [28] = test system: T24, LATS1; settings: 2.5 µM
# T24 construct: purchased ActivX Biosciences (KiNativ)
# Procedure: as §1
# [29] = test system: T25, TAK1; settings: 2.5 µM; Lys2; DLKPPNLLLVAGGTVLK
# T25 construct: purchased ActivX Biosciences (KiNativ)
# Procedure: as §1
# [30] = test system: T26, p70S6K; settings: 2.5 µM
# T26 construct: purchased ActivX Biosciences (KiNativ)
# Procedure: as §1
# [31] = test system: T27, RSK2 domain1; settings: 2.5 µM
# T27 construct: RSK2 domain1; purchased ActivX Biosciences (KiNativ)
# Procedure: as §1
# [32] = test system: T28, TLK1; settings: 2.5 µM
# T28 construct: purchased ActivX Biosciences (KiNativ)
# Procedure: as §1
# [33] = Lys1, TVSVAVKCLKPDVLSQPEAMDDFIR
# [34] = Activation Loop, LTDFGLSKESIDHEKK
# [35] = Lys2, YLNEIKPPIIHYDLKPGNILLVDGTACGEIK
compound,measurement,setting,value
"C=CC(=O)Nc1cc(Nc2nccc(-c3cn(C)c4ccccc34)n2)c(OC)cc1N(C)CCN(C)C [Osimertinib, osimertinib, reference compound]",Inhibition,[1],-18.1%
same,Inhibition,[2],-8.5%
same,Inhibition,[3],48.0%
same,Inhibition,[4],-10.0%
same,Inhibition,[5],-14.3%
same,Inhibition,"[6]; Lys1, DTGHVYAMKILR",-7.9%
same,Inhibition,"[6]; Lys2, DIKPDNLLLDSK",12.0%
same,Inhibition,[7],-10.0%
same,Inhibition,[8],10.4%
same,Inhibition,[9],15.0%
same,Inhibition,[10],26.7%
same,Inhibition,"[11]; Activation Loop, KVPFAWCAPESLK",27.2%
same,Inhibition,[11]; [33],25.7%
same,Inhibition,[12],-2.3%
same,Inhibition,"[13]; Lys1, LDGCCYAVKR",3.6%
same,Inhibition,"[13]; Lys2, DLKPVNIFLDSDDHVK",-25.4%
same,Inhibition,[14],51.7%
same,Inhibition,[15],1.1%
same,Inhibition,"[16]; Lys1, IYAMKVVK",5.6%
same,Inhibition,"[16]; Lys2, DLKLDNVLLDSEGHIK",-27.3%
same,Inhibition,[17],-0.641%
same,Inhibition,[18],1.9%
same,Inhibition,[19],-9.7%
same,Inhibition,[20]; AKELPTLKDNDFINEGQK,-3.2%
same,Inhibition,[20]; YIIKTITSEDVAEMHNILK,-14.3%
same,Inhibition,[21],-34.8%
same,Inhibition,[22],-39.1%
same,Inhibition,[23],-4.0%
same,Inhibition,[24],-1.3%
same,Inhibition,[25],-9.0%
same,Inhibition,[26],11.1%
same,Inhibition,[27],7.8%
same,Inhibition,"[28]; Lys1, ALYATKTLR",-8.1%
same,Inhibition,"[28]; Lys2, DIKPDNILIDR",5.0%
same,Inhibition,[29],-9.8%
same,Inhibition,"[30]; Lys1, IFAMKVLK",-2.7%
same,Inhibition,"[30]; Lys2, DLKPENIMLNHQGHVK",-39.3%
same,Inhibition,[31]; [34],-31.9%
same,Inhibition,"[31]; Lys1, QLYAMKVLK",3.3%
same,Inhibition,"[32]; Lys1, YAAVKIHQLNK",-53.3%
same,Inhibition,[32]; [35],7.2%
C=CC(=O)Nc1cc(C(=O)Nc2nc3cccc(C)c3n2[C@@H]2CCCCN(C(=O)C=C)C2)cs1 [ZNL-0056],Inhibition,[1],5.3%
same,Inhibition,[2],7.5%
same,Inhibition,[3],28.2%
same,Inhibition,[4],-7.9%
same,Inhibition,[5],9.6%
same,Inhibition,"[6]; Lys1, DTGHVYAMKILR",6.1%
same,Inhibition,"[6]; Lys2, DIKPDNLLLDSK",5.7%
same,Inhibition,[7],4.5%
same,Inhibition,[8],18.8%
same,Inhibition,[9],-8.1%
same,Inhibition,[10],-26.7%
same,Inhibition,"[11]; Activation Loop, KVPFAWCAPESLK",-21.4%
same,Inhibition,[11]; [33],-6.2%
same,Inhibition,[12],10.0%
same,Inhibition,"[13]; Lys1, LDGCCYAVKR",0.0617%
same,Inhibition,"[13]; Lys2, DLKPVNIFLDSDDHVK",5.5%
same,Inhibition,[14],-9.6%
same,Inhibition,[15],-8.5%
same,Inhibition,"[16]; Lys1, IYAMKVVK",2.3%
same,Inhibition,"[16]; Lys2, DLKLDNVLLDSEGHIK",15.4%
same,Inhibition,[17],-17.6%
same,Inhibition,[18],-24.2%
same,Inhibition,[19],5.4%
same,Inhibition,[20]; AKELPTLKDNDFINEGQK,-0.9%
same,Inhibition,[20]; YIIKTITSEDVAEMHNILK,-4.5%
same,Inhibition,[21],-5.2%
same,Inhibition,[22],-27.2%
same,Inhibition,[23],6.7%
same,Inhibition,[24],-13.0%
same,Inhibition,[25],3.5%
same,Inhibition,[26],-20.6%
same,Inhibition,[27],1.6%
same,Inhibition,"[28]; Lys1, ALYATKTLR",3.8%
same,Inhibition,"[28]; Lys2, DIKPDNILIDR",20.9%
same,Inhibition,[29],10.2%
same,Inhibition,"[30]; Lys1, IFAMKVLK",23.2%
same,Inhibition,"[30]; Lys2, DLKPENIMLNHQGHVK",-10.8%
same,Inhibition,[31]; [34],-17.5%
same,Inhibition,"[31]; Lys1, QLYAMKVLK",0.2%
same,Inhibition,"[32]; Lys1, YAAVKIHQLNK",31.3%
same,Inhibition,[32]; [35],13.1%
